Measurements published in PMC4789100 (Environment international, 2009).
Where “and” joins values, the source holds several entries; their conditions need not be identical. Identical values can stand only once. Entries after “also recorded” stand apart in the source; their conditions may differ. Like-named read-outs stand apart in the source and are kept apart here.

What was measured:
[1] = molecular target: T1, sheep placental cytosolic estrogen sulfotransferase (estradiol as substrate) (Ovis aries, UniProt A0ACI6NYW9); assay type: biochemical
T1 sequence (A0ACI6NYW9 1-296): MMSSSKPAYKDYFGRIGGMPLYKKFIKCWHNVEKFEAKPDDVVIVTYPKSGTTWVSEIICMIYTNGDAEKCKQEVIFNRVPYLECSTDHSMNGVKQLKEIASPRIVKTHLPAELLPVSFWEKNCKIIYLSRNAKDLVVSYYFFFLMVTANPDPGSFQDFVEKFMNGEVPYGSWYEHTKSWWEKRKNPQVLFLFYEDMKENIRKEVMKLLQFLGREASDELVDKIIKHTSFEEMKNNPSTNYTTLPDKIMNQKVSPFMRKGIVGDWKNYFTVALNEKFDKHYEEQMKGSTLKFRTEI

[2] = cited from earlier work
[3] = Triclosan sulfonation in placental cytosol with 35S-PAPS; assay type: in vitro ADME, sheep; details: sheep, sheep placental cytosol, pH 7.4
sheep placental cytosol = test: as above; assay type: in vitro ADME
[4] = system: sheep placental microsomes; test: Triclosan glucuronidation in placental microsomes with 14C-UDPGA; assay type: in vitro ADME; details: 1 μM Triclosan; limit of detection <0.5 pmol/min/mg protein
expressed human SULT1E1 = details: cited from earlier work
[5] = estradiol as substrate, mean±S.D., n=3

Structure (SMILES): O=C(Nc1ccc(Cl)c(Cl)c1)Nc1ccc(Cl)cc1O [2′OH-TCC, 2′-hydroxy-triclocarban]
- IC50 ([1]; read-out: IC50 for inhibition of estradiol sulfonation, 1 nM estradiol): 310 ± 40 nM

Structure (SMILES): Oc1cc(Cl)ccc1Oc1ccc(Cl)cc1Cl [Triclosan, 5-chloro-2(2,4-dichlorophenoxy)-phenol]
- Reported mean concentration of total Triclosan ([2]; Breast milk, Sweden, Control female, ref Allmyr et al., 2006b): 0.02 ng/g and 0.07 nM
- Reported mean concentration of total Triclosan ([2]; Breast milk, Sweden, Exposed female, ref Allmyr et al., 2006b): 0.54 ng/g and 1.87 nM
- Reported mean concentration of total Triclosan ([2]; Serum, Australia, Female 2002, ref Allmyr et al., 2008): 14 ng/g and 48.4 nM
- Reported mean concentration of total Triclosan ([2]; Serum, Australia, Female 2004, ref Allmyr et al., 2008): 7.2 ng/g and 24.9 nM
- Reported mean concentration of total Triclosan ([2]; Serum, Australia, Male 2004, ref Allmyr et al., 2008): 12 ng/g and 41.5 nM
- Reported mean concentration of total Triclosan ([2]; Serum, Sweden, Control female, ref Allmyr et al., 2006b): 0.07 ng/g and 0.25 nM
- Reported mean concentration of total Triclosan ([2]; Serum, Sweden, Exposed female, ref Allmyr et al., 2006b): 16 ng/g and 55.3 nM
- Reported mean concentration of total Triclosan ([2]; Urine, United States, Female, ref Calafat et al., 2008): 10.6 μg/L and 36.6 nM
- Reported mean concentration of total Triclosan ([2]; Urine, United States, Male, ref Calafat et al., 2008): 16.2 μg/L and 56.0 nM
- Km at 15 min [3]: 1.14 ± 0.18 µM
- Sulfonation apparent Vmax (sheep placental cytosol; Triclosan 0.1 to 10 μM, mean±S.D. of three individual samples): 160±26 pmol/min/mg protein
- Fraction of Triclosan that would be sulfonated (sheep placental cytosol; conditions of estradiol or estrone sulfonation assay with 1 nM Triclosan): less than 0.1%
- Glucuronidation [4]: not a substrate for glucuronidation; also recorded: no detectable glucuronidation

Structure (SMILES): Oc1c(Cl)cc(-c2ccc(Cl)c(Cl)c2)cc1Cl [4′OH-CB79, 4-hydroxy-3,3′,4′,5-tetrachlorobiphenyl]
- IC50 (expressed human SULT1E1; ref Kester et al., 2000): 0.2 to 0.6 nM

Structure (SMILES): C[C@]12CC[C@@H]3c4ccc(O)cc4CC[C@H]3[C@@H]1CC[C@@H]2O [Estradiol, 17-beta-estradiol]
- Ki, constant for partial inhibition of estradiol sulfotransferase activity by substrate [1, 5]: 54.7 ± 25.3 nM
- Vmin, plateau low rate at high estradiol concentrations [1, 5]: 12.1±7.7 pmol/min/mg protein
- Estradiol concentration above which partial substrate inhibition is displayed (expressed human SULT1E1; ref Zhang et al.,1998): above 20 nM
